# Experimental data taken from patent publication US12390409B2 (NeueRe, LLC, priority 2018, dated 2025).
# Experiments:
# [1] = system: human (adult male) skin; assay: TEWL recovery after skin barrier disruption by 99.9% DMSO, upper thigh; assay type: in vivo; conditions: 2.0 mM ambroxol in 99.9% DMSO
# Description: Dimethyl sulfoxide (DMSO) is a well-known skin permeability enhancer that is thought to act by disrupting ceramide-containing lipid bilayers of the stratum corneum and thereby compromising the permeability barrier of the skin (Agner and Serup, Clin. Expt. Dermatology 14:214 [1989]; Notman et al Biophysical Journal 93:2056 [2007]). Among its many protective functions, this lipid barrier regulates transepidermal water loss (TEWL) and is vital for the prevention of skin dryness in mammals. Thus, it is accepted by researchers in the field, that measurements of TEWL can be used to directly assay the integrity of the skin permeability barrier (Fluhr et al Experimental Dermatology 15:483 [2006]).
# All experiments were conducted in a narrow range of relative humidity (30-40%) and at stable room temperatures of 18-22° C.
# Transepidermal water loss (TEWL) measurements, in units of g/m^2-h, were taken at various time points after applying the solutions (at t=0) to the skin sites. TEWL values were assessed using a wireless closed-chamber system (VapoMeter, Delphin Technologies Ltd., Kuopio, Finland) that automatically calculates water evaporation rates over a small area (˜1.3 cm^2); each measurement took about 10 s (Fluhr et al Experimental Dermatology 15:483 [2006]). […] All time points were measured in duplicate or triplicate. […] The improvement in TEWL, a difference of 4-6 g/m^2-h between the two curves, then maintains itself over the remaining course of the experiment. […] Shown for each point are the error bars (standard deviation of duplicate or triplicate measurements); for some points the error bars are less visible because they were smaller than the diameter of the symbol representing that point.]
# [2] = system: skin of volar forearm; assay: Dose-ranging study of ambroxol on TEWL, 99.9% DMSO, volar forearm; assay type: in vivo, human; conditions: ambroxol concentrations much lower than 2.0 mM (20 micromolar to 2.0 mM tested) in 99.9% DMSO, 10 microliter, 1 hr and 10 hr post-application
# Description: Apart from these additional concentrations, conditions and the formulation (99.9% DMSO) were essentially the same as those described in Example 1, except in this experiment 10 microliter aliquots were spread and the skin region tested was on the volar forearm.
# The data in FIG. 3 are presented as histograms, with only start points (at 1 hr post-application) and end-points (at 10 hr post application) shown. Two things are notable about this experiment. […] This may reflect the relative delicacy of volar forearm skin compared to skin of the upper thigh, such that the same treatment may be more or less harsh depending on the skin area treated. […] [Symbols: Open rectangles, skin TEWL measured at 1 hr post-application; hatched rectangles, skin TEWL measured at 10 hr post-application; dashed line, average TEWL value (7.8±1.1 g/m^2-hr) of untreated skin from areas adjacent to the treatment sites. All measurements were taken in quadruplicate (n=4) or quintuplicate (n=5). Shown for each value are the error bars (standard deviation of quadruplicate or quintuplicate measurements.]
# [3] = system: skin; conditions: other case reports, positive patch test; cited from earlier work
# [4] = system: human skin; assay: TEWL recovery after disruption by 60:40 DMSO:water formulation, upper thigh; assay type: in vivo; conditions: 2.0 mM ambroxol in 60:40 (v/v) DMSO:water
# Procedure: 60% DMSO has been reported to be the minimum concentration of DMSO needed to disrupt ceramide-containing lipid bilayers in skin (Notman et al Biophysical Journal 93:2056 [2007]).
# All time points were measured in duplicate or triplicate.
# Also like in the experiment shown in FIG. 1, there is an enduring improvement of approximately 5 g/m^2-h in the rate of water loss of the ambroxol-treated skin relative to skin treated with the DMSO:water formulation alone. […] Shown for each point are the error bars (standard deviation of duplicate or triplicate measurements); for some points the error bars are less visible because they were smaller than the diameter of the symbol representing that point.]
smiles,measurement,setting,value
"Nc1c(Br)cc(Br)cc1CN[C@H]1CC[C@H](O)CC1 [ambroxol, trans-4-(2-amino-3,5-dibromobenzylamino) cyclohexanol]","improvement in TEWL, difference between ambroxol and control (DMSO only) curves","[1]; 20 microliter on about 2 cm^2 upper thigh skin, maintained after the burst over the remaining course",4-6 g/m^2-h
same,period of the rapid burst of skin barrier healing,[1]; upper thigh,approximately 30 minutes
same,time post-application of sudden drop in TEWL,[1]; upper thigh,about 60 minutes
same,ameliorating the increase in TEWL caused by the DMSO insult,[2],positive results
same,adverse skin reaction in case reports,[3],systemic contact dermatitis
same,time of the burst of TEWL improvement,[4],in the first hour post-application
